Measured values: the NIST ThermoML archive (doi:10.1021/je060249h)
Several values for one entry are separate records, joined by “and”; a condition that tells them apart may be missing. Equal values may be shown once. ± gives the expanded uncertainty stated by the source.

Conditions: Liquid

Clc1ccccc1 [chlorobenzene]
Conditions | vapor or sublimation pressure [kPa]
330.5 K | 7.92 ± 0.55
337.4 K | 10.59 ± 0.55

ClCc1nc2ccccc2o1 [2-(chloromethyl)-1,3-benzoxazole]
Ebulliometric method (Recirculating still)
Conditions | vapor or sublimation pressure
347.65 K | 0.08 ± 0.06 kPa
357.1 K | 0.16 ± 0.06 kPa
368.45 K | 0.32 ± 0.07 kPa
375.15 K | 0.59 ± 0.08 kPa
378.2 K | 0.69 ± 0.09 kPa
383.2 K | 0.96 ± 0.12 kPa
388.15 K | 1.39 ± 0.12 kPa
393.5 K | 1.76 ± 0.44 kPa
393.85 K | 1.87 ± 0.44 kPa
395.6 K | 2.03 ± 0.2 kPa
400.3 K | 2.72 ± 0.19 kPa
405.25 K | 3.28 ± 0.25 kPa
408.35 K | 4.19 ± 0.34 kPa
411.9 K | 4.88 ± 0.34 kPa
417.3 K | 6.32 ± 1.7 kPa
418.1 K | 7.29 ± 1.4 kPa
418.85 K | 7.91 ± 1.2 kPa
418.9 K | 7.92 ± 0.73 kPa
422.05 K | 9.41 ± 0.66 kPa
423.2 K | 9.92 ± 0.73 kPa and 10.59 ± 0.75 kPa
424.2 K | 10.53 ± 0.9 kPa
424.55 K | 10.8 ± 1.1 kPa
